# In US4818753A, “Synthesis and method of use for 2, 4 diaminoquinazoline” (SRI International, priority 1987, dated 1989):
# Read-outs that look alike come from different tables or passages of the source.
# Tests used:
# Format in all cases: cell-based
# [1] = test system: Candida albicans (10231); assay: Broth dilution assay, F1
# Description: (§1) Both broth dilution and agar dilution assays were used to assess the antifungal activity of the compounds of the invention. The cultures were maintained in Sabouraud dextrose broth (SDB) and diluted with […]. 2.5 l of SDB was prepared and distributed into sterile vessels as follows: 49 ml into 1 vessel, 27 ml into 3 vessels, 45 ml into 2 vessels.
# (§2) Five mg/ml concentration of each compound was prepared using DMSO as the solvent; warming and sonication were necessary to dissolve each compound completely. The compounds were then diluted in SDB according to the following protocol:
# (§3) 5. 1 ug/ml--5 ml (3)+45 ml SDB
# (§4) The compound at each concentration in SDB was then dispensed into 6 tubes each containing 4 ml […]. Controls (without any compound) were also prepared to insure that the solvent itself was not fungicidal or fungistatic.
# (§5) Cultures were grown in SDB for 24 h at 30° C. C. albicans and C. neoformans were diluted 1:10 in SDB before inoculation. Inoculation volume for yeasts was 2 drops of diluted cells per tube. The fungal cultures were homogenized before inoculation. The same volume was added, but without dilution. All tubes were incubated at room temperature on a rotating wheel. After 16 h of incubation at room temperature, the fungistatic assay was set up on agar plates. […] Yeasts were inoculated onto SDA (the corresponding agar) plates and fungi onto mycosel agar plates. These plates were then incubated at room temperature.
# [2] = test system: Candida; assay: Growth of Candida cultures with compound and/or SMX (FIG. 1)
# [3] = test system: Candida albicans MY1058; assay: Agar dilution assay; conditions: MY1058, 48 h
# From the text: (§6) For the agar dilution assay, the test panel consisted of 18 yeastlike and 3 Filamentus fungii. Four media were used. These were yeast nitrogen base dextrose (0.5% agar) (YNBDA); pH 5.5; YNBDA with pH adjusted to pH 7.5; and micrological agar (MA), pH 7.0; and Sabouraud dextrose agar, pH 5.7. The media was manufactured by Difco (Detroit, MI) and prepared according to the manufacturer's instructions.
# (§7) The test compounds were solubilized in 10% aqueous DMSO; the control drug, Nystatin, was solublized in 10% aqueous DMF. The drugs were serially diluted twofold in sterile water to yield concentrations of 1.28 mg/ml to […]. One ml of diluted drug was added to 9 ml of cooled (50° C.) molten agar in plastic petri plates to yield final drug concentrations in the agar ranging from 128 to 0.063 ug/ml. Appropriate solvent and media control plates were prepared as well, and all plates stored in the dark at 4° C. overnight. The yeast cultures, maintained in yeast maltose (YM; Difco), were transferred to fresh YM medium and incubating overnight at 37° C. with shaking at 250 rpm. After incubation each culture was diluted in sterile saline to yield concentrations of 3×10^5 to 3×10^6 cfu/ml. Isolates of aspergillis and penicillium were made on potato dextrose agar slants, and spore suspensions were made following vigorous shaking with sterile glass beads. The spore preparation were used as inocula for these fungi.
# (§8) Each prepared place was inoculated with the 21-member panel using a Denleigh multipoint inoculator (Sussex, England). The inoculator delivers approximately 1 ul to the agar surface, resulting in inoculation of from 3×10^2 to 3×10^3 cfu. The plates were incubated at 28° C. for 48 h, and the minimum inhibitory concentrations (MIC) of each drug were recorded as the lower concentration of the drug permitting no growth or growth of less than 3 cfu/spot.
# [4] = test system: Ca. tropicalis MY1011; assay: Agar dilution assay; conditions: Candida tropicalis, MY1011, 48 h, read-out: Minimum inhibitory concentration
# From the text: as §6, §7, §8
# [5] = test system: Ca. pseudotropicalis MY1040; assay: Agar dilution assay; conditions: Kluyveromyces marxianus, MY1040, 48 h, read-out: Minimum inhibitory concentration
# From the text: as §6, §7, §8
# [6] = test system: Ca. guilliermondii MY1019; assay: Agar dilution assay; conditions: Meyerozyma guilliermondii, MY1019, 48 h, read-out: Minimum inhibitory concentration
# From the text: as §6, §7, §8
# [7] = test system: Ca. albicans MY1029; assay: Agar dilution assay; conditions: Candida albicans, MY1029, 48 h, read-out: Minimum inhibitory concentration
# From the text: as §6, §7, §8
# [8] = test system: Ca. parapsilosis MY1009; assay: Agar dilution assay; conditions: MY1009, 48 h, read-out: Minimum inhibitory concentration
# From the text: as §6, §7, §8
# [9] = test system: Epidermophyton floccosum (15693); assay: Broth dilution assay, F4
# Description: as §1, §2, §3, §4, §5
# [10] = test system: Cryptococcus neoformans (13690); assay: Broth dilution assay, F3
# Description: as §1, §2, §3, §4, §5
# [11] = test system: Microsporum gypseum (14683); assay: Broth dilution assay, F12; conditions: Nannizzia gypsea
# Description: as §1, §2, §3, §4, §5
smiles,measurement,setting,value
"CCCCCCCCc1ccc2nc(N)nc(N)c2c1C [2,4-Diamino-5-methyl-6-n-octylquinazoline]",MFC,"[1]; Table 2, F1, Sabouraud Dextrose Broth pH 5.5, read-out: C Fungicidal",100 µg/mL
same,MIC,"[1]; Table 2, F1, Sabouraud Dextrose Broth pH 5.5, read-out: S Fungistatic",10 µg/mL
same,cfu/ml after 9 h,"[2]; 10 ug compound + 100 ug SMX, after 9 h",10^2 cfu/ml
same,cfu/ml after 36 h,[2]; 10 ug compound + 100 ug SMX,zero
same,cfu/ml after 36 h,[2]; 10 ug of compound alone,10^4 cfu/ml
same,cfus after 9 h,"[2]; 100 ug of each compound (with SMX), after 9 h",no cfus
same,synergistic activity with sulfa drug,[2]; with sulfa drug (SMX in FIG. 1),synergistic activity
same,MIC,"[3]; MA pH 7.0, read-out: Minimum inhibitory concentration",16 µg/mL
same,MIC,"[3]; SDA pH 5.7, read-out: Minimum inhibitory concentration",> 128 µg/mL
same,MIC,"[3]; YNBDA pH 5.5, read-out: Minimum inhibitory concentration",> 128 µg/mL
same,MIC,"[3]; YNBDA pH 7.5, read-out: Minimum inhibitory concentration",32 µg/mL
same,MIC,[4]; MA pH 7.0,16 µg/mL
same,MIC,[4]; SDA pH 5.7,128 µg/mL
same,MIC,[4]; YNBDA pH 5.5,> 128 µg/mL
same,MIC,[4]; YNBDA pH 7.5,16 µg/mL
same,MIC,[5]; MA pH 7.0,4 µg/mL
same,MIC,[5]; SDA pH 5.7,128 µg/mL
same,MIC,[5]; YNBDA pH 5.5,128 µg/mL
same,MIC,[5]; YNBDA pH 7.5,4 µg/mL
same,MIC,[6]; MA pH 7.0,16 µg/mL
same,MIC,[6]; SDA pH 5.7,> 128 µg/mL
same,MIC,[6]; YNBDA pH 5.5,> 128 µg/mL
same,MIC,[6]; YNBDA pH 7.5,16 µg/mL
same,MIC,[7]; MA pH 7.0,32 µg/mL
same,MIC,[7]; SDA pH 5.7,> 128 µg/mL
same,MIC,[7]; YNBDA pH 5.5,> 128 µg/mL
same,MIC,[7]; YNBDA pH 7.5,32 µg/mL
same,MIC,[8]; MA pH 7.0,8 µg/mL
same,MIC,[8]; SDA pH 5.7,> 128 µg/mL
same,MIC,[8]; YNBDA pH 5.5,> 128 µg/mL
same,MIC,[8]; YNBDA pH 7.5,16 µg/mL
same,MFC,"[9]; Table 2, F4, Sabouraud Dextrose Broth pH 5.5, read-out: C Fungicidal",30 µg/mL
same,MIC,"[9]; Table 2, F4, Sabouraud Dextrose Broth pH 5.5, read-out: S Fungistatic",1 µg/mL
same,MFC,"[10]; Table 2, F3, Sabouraud Dextrose Broth pH 5.5, read-out: C Fungicidal",3 µg/mL
same,MIC,"[10]; Table 2, F3, Sabouraud Dextrose Broth pH 5.5, read-out: S Fungistatic",3 µg/mL
same,MFC,"[11]; Table 2, Sabouraud Dextrose Broth pH 5.5, read-out: C Fungicidal",100 µg/mL
same,MIC,"[11]; Table 2, Sabouraud Dextrose Broth pH 5.5, read-out: S Fungistatic",30 µg/mL
